For one series, the system named is J774. As to the kind of experiment: Cytotoxicity against mouse J774 assessed as reduction in cell viability at 16 ug/ml incubated for 24 hrs by MTS assay. Type of series: cell-based. The following applies: j774, 24 h.
Series [1] can be described thus: Solubility of compound in PBS after 2 hrs by turbidity based absorbance analysis. Type of series: physicochemical.
The subject of a further series is Staphylococcus aureus. As to the kind of experiment: Antibacterial activity against methicillin resistant Staphylococcus aureus USA400 assessed as reduction in bacterial cell growth incubated for 18 to 20 hrs by broth microdilution method. Type of series: functional. On the technique in general: Broth dilution looks for growth in wells or tubes with falling amounts of substance.

The test system of series [2] is Acinetobacter baumannii. As to the kind of experiment: Antibacterial activity against Acinetobacter baumannii ATCC 19606 assessed as reduction in bacterial cell growth incubated for 18 to 20 hrs by broth microdilution method. Type of series: functional.
Series [3] relates to Escherichia coli. As to the kind of experiment: Antibacterial activity against Escherichia coli BW25113 assessed as reduction in bacterial cell growth incubated for 18 to 20 hrs by broth microdilution method. Type of series: functional.
Series [4] relates to Escherichia coli. As to the kind of experiment: Antibacterial activity against Escherichia coli JW55031 harboring deltatolC mutant assessed as reduction in bacterial cell growth incubated for 18 to 20 hrs by broth microdilution method. Type of series: functional.
Series [5] has as its system Klebsiella pneumoniae. As to the kind of experiment: Antibacterial activity against Klebsiella pneumoniae BAA-1706 assessed as reduction in bacterial cell growth incubated for 18 to 20 hrs by broth microdilution method. Type of series: functional.
The test system of series [6] is Pseudomonas aeruginosa. As to the kind of experiment: Antibacterial activity against Pseudomonas aeruginosa ATCC 15442 assessed as reduction in bacterial cell growth incubated for 18 to 20 hrs by broth microdilution method. Type of series: functional.
Series [7] deals with Acinetobacter baumannii. In words: Bactericidal activity against Acinetobacter baumannii ATCC 19606 assessed as reduction in bacterial cell growth incubated for 18 to 20 hrs followed by re-plating on tryptic soy agar plates at 37 degC for 18 hrs by broth microdilution assay. Type of series: functional.
In series [8] the test system is Escherichia coli. In words: BActericidal activity against Escherichia coli BW25113 assessed as reduction in bacterial cell growth incubated for 18 to 20 hrs followed by re-plating on tryptic soy agar plates at 37 degC for 18 hrs by broth microdilution assay. Type of series: functional.
Series [9] relates to Escherichia coli. As to the kind of experiment: Bactericidal activity against Escherichia coli JW55031 harboring deltatolC mutant assessed as reduction in bacterial cell growth incubated for 18 to 20 hrs followed by re-plating on tryptic soy agar plates at 37 degC for 18 hrs by broth microdilution assay. Type of series: functional.
Series [10] has as its system Klebsiella pneumoniae. In words: Bactericidal activity against Klebsiella pneumoniae BAA-1706 assessed as reduction in bacterial cell growth incubated for 18 to 20 hrs followed by re-plating on tryptic soy agar plates at 37 degC for 18 hrs by broth microdilution assay. Type of series: functional.
The subject of series [11] is Pseudomonas aeruginosa. In words: Bactericidal activity against Pseudomonas aeruginosa ATCC 15442 assessed as reduction in bacterial cell growth incubated for 18 to 20 hrs followed by re-plating on tryptic soy agar plates at 37 degC for 18 hrs by broth microdilution assay. Type of series: functional.

≈ marks a conversion by molar mass, not a printed value.

`C/C(=N\NC(=N)N)c1sc(-c2ccc(C#Cc3ccccc3)cc2)nc1C`: the Activity result in the series on J774 is “Toxic”. For the same compound, the kinetic solubility at 2 h in series [1] was 2.5 µM (≈ 0.934 µg/mL).
With `COC(=O)c1ccccc1C#Cc1ccc(-c2nc(C)c(/C(C)=N/NC(=N)N)s2)cc1`, the MIC in the series with Staphylococcus aureus amounted to 16 µg/mL (≈ 37.1 µM).
Consider `CCOC(=O)C#Cc1ccc(-c2nc(C)c(/C(C)=N/NC(=N)N)s2)cc1`, for which the MIC with Staphylococcus aureus was more than 64 µg/mL.
With `C/C(=N\NC(=N)N)c1sc(-c2ccc(C#Cc3cccc(N)c3)cc2)nc1C`, the MIC with Staphylococcus aureus worked out at 4 µg/mL (≈ 10.3 µM).
The same measure, in the same setting: with `C/C(=N\NC(=N)N)c1sc(-c2ccc(C#Cc3ccccn3)cc2)nc1C` the figure was 32 µg/mL (≈ 85.5 µM); with `C/C(=N\NC(=N)N)c1sc(-c2ccc(C#Cc3cncnc3)cc2)nc1C`, more than 64 µg/mL.
For the compound COLISTIN, the MIC in the series on Acinetobacter baumannii [2] is less than 0.5 µg/mL; in the series with Escherichia coli [3] it was less than 0.5 µg/mL; in the series on Escherichia coli [4], less than 0.5 µg/mL; in the series with Klebsiella pneumoniae [5], less than 0.5 µg/mL; in the series with Pseudomonas aeruginosa [6] it was 1 µg/mL. For the same compound, the MBC was less than 0.5 µg/mL in the series on Acinetobacter baumannii [7]; less than 0.5 µg/mL with Escherichia coli [8]; less than 0.5 µg/mL in the series on Escherichia coli [9]; less than 0.5 µg/mL in the series on Klebsiella pneumoniae [10]; 1 µg/mL in the series with Pseudomonas aeruginosa [11].
With `COC(=O)c1cccc(C#Cc2ccc(-c3nc(C)c(/C(C)=N/NC(=N)N)s3)cc2)c1`, the MIC with Staphylococcus aureus was 32 µg/mL (≈ 74.2 µM).
Regarding `C/C(=N\NC(=N)N)c1sc(-c2ccc(C#Cc3ccsc3)cc2)nc1C`, the MIC in the series on Staphylococcus aureus was more than 64 µg/mL.
Consider `COc1ccccc1C#Cc1ccc(-c2nc(C)c(/C(C)=N/NC(=N)N)s2)cc1`, for which the MIC in the series on Staphylococcus aureus came to 16 µg/mL (≈ 39.7 µM).
Same read-out and setting: then `C/C(=N\NC(=N)N)c1sc(-c2ccc(C#Cc3cc(O)ccc3C)cc2)nc1C`, with more than 64 µg/mL; and `C/C(=N/NC(=N)N)c1ccc(C#Cc2ccc(-c3nc(C)c(/C(C)=N/NC(=N)N)s3)cc2)cc1`, with more than 64 µg/mL.
`C/C(=N\NC(=N)N)c1sc(-c2ccc(C#Cc3ccc(C(N)=O)cc3)cc2)nc1C`: the MIC with Staphylococcus aureus was more than 64 µg/mL.
In the case of `C/C(=N\NC(=N)N)c1sc(-c2ccc(C#Cc3cccc([N+](=O)[O-])c3)cc2)nc1C`, the MIC in the series on Staphylococcus aureus was found to be 64 µg/mL (≈ 153 µM).
Take `CCCCc1ccc(-c2nc(C)c(/C(C)=N/NC(=N)N)s2)cc1`: in [1], the kinetic solubility at 2 h is 65 µM (≈ 21.4 µg/mL).

Broadly, the solubility (kinetic) is solubility judged after dilution from a stock solution rather than from solid. Usually MIC stands for the least concentration at which growth counts as inhibited. Broadly, the MBC is the smallest concentration meeting the test's criterion for killing.

Values taken from ChEMBL document CHEMBL4393697, “Lipophilic efficient phenylthiazoles with potent undecaprenyl pyrophosphatase inhibitory activity” (Eur J Med Chem, 2019).
